Assay results reported in patent US20220395472A1 (Dermavant Sciences GmbH, priority 2021, published 2022).
Values joined by “and” are separate entries in the source; they are usually repeats but may differ in a detail not shown here. Equal entries are not always repeated.

Columns and labels:
[1] = tested on: adults with plaque psoriasis; experiment: Long-term extension study (PSOARING 3): adverse events; assay type: in vivo, human
Excerpt: Endpoints: Incidence, frequency, and nature of AEs, adverse events of special interest (AESIs), and serious adverse events (SAEs), Change over time in clinical laboratory tests and frequency of clinically significant abnormal test results, Change over time in vital signs and frequency of clinically significant abnormal results, Local Tolerability Scale (LTS) scores by severity summarized by visit.
Safety assessments included AEs, AESIs, SAEs, local (application site) tolerability, clinical laboratory tests, vital signs, physical examinations, and Investigator assessed LTS. Efficacy assessments included a 5 point static PGA (0 [clear], 1 [almost clear], 2 [mild], 3 [moderate], 4 [severe]), % BSA affected, the PASI, and subject reported DLQI.

[2] = tested on: mild to severe plaque psoriasis; experiment: Treat-to-target pooled analysis of the PSOARING trials; assay type: in vivo, human
Excerpt: In addition to a % BSA of ≤1.0% and PASI75, pooled analyses explored more aggressive targets, including the proportion of patients with % BSA of ≤0.5%, or an absolute PASI score of ≤1, ≤2 or ≤3. […] Safety analyses are based on all patients who received tapinarof in the PSOARING trials.

[3] = tested on: adults with plaque psoriasis; experiment: Long-term extension study (PSOARING 3): patient-reported and investigator-assessed Local Tolerability Scale; assay type: in vivo, human; conditions: all anatomic regions incl. sensitive areas; 40 weeks
Description: Tolerability is defined as the local tolerability using a patient-reported 5-point scale for burning/stinging and itching, and an investigator-assessed 5-point scale for dryness, erythema, and peeling.
Tolerability was assessed subjectively via subject and objectively via Investigator throughout the 40 weeks of the study. The patient-reported local tolerability scale utilized for self-reported tolerability assessment is shown in Table 20, while the investigator-assessed local tolerability scale utilized is shown in Table 21.

[4] = Maximal use study with serial PK sampling: plasma concentrations; assay type: in vivo, human; conditions: between Days 1 and 29
Excerpt: (FIG. 2). This decline is further supported by serial PK data collected from previous clinical studies over 28 days of dosing and over 21 days of dosing.

[5] = tested on: adults with plaque psoriasis; experiment: Long-term extension study (PSOARING 3): PASI score, PASI75, PASI90; assay type: in vivo, human
Excerpt: The PASI scoring system is a widely used, standard, clinical tool for assessing the severity of psoriasis that takes into account the overall severity of erythema (redness), induration (plaque thickness), scale, and the extent of % BSA affected with psoriasis. The 3 clinical signs are each graded on a 5 point scale (0 to 4) and the % BSA affected is scored on a 7 point scale (0 to 6) for each of the 4 specified body regions (head, upper extremities, trunk, and lower extremities). Individual scores are multiplied by a weighted factor for each body region; the sum of these scores gives the overall PASI score. Higher scores indicate more severe disease. PASI is a static assessment made without reference to previous scores. Details on PASI calculation can be found in Appendix 2 of the protocol.

[6] = In vitro studies in human skin microsomes: metabolic turnover; assay type: in vitro ADME
Excerpt: The reason for the decrease in plasma concentrations over time is unknown. Without wishing to be bound by theory, as the skin heals, there may be less penetration of the drug through the stratum corneum and into the systemic circulation since the barrier is restored.

[7] = final analysis, Tapinarof→Tapinarof
[8] = final analysis, Vehicle→Tapinarof
[9] = Week 16, LOCF, Tapinarof (Pivotal) group
[10] = Week 16, LOCF, Vehicle (Pivotal) group
[11] = Week 16, OC, Tapinarof (Pivotal) group
[12] = Week 16, OC, Vehicle (Pivotal) group
[13] = Week 16, Observed Cases, Overall
[14] = Week 16, Observed Cases, Tapinarof (Pivotal) group
[15] = Week 16, Observed Cases, Vehicle (Pivotal) group
[16] = Week 40, LOCF, Tapinarof (Pivotal) group
[17] = Week 40, LOCF, Vehicle (Pivotal) group
[18] = Week 40, OC, Tapinarof (Pivotal) group
[19] = Week 40, OC, Vehicle (Pivotal) group
[20] = Week 40, Observed Cases, Tapinarof (Pivotal) group
[21] = Week 40, Observed Cases, Vehicle (Pivotal) group

With `CC(C)c1c(O)cc(/C=C/c2ccccc2)cc1O` [Tapinarof, 3,5-Dihydroxy-4-isopropyl-trans-stilbene] the “TEAE incidence: contact dermatitis” value ([1]; final analysis) was 5.5%, the “TEAE incidence: folliculitis” value ([1]; final analysis) was 22.7% and the “TEAE incidence: upper respiratory tract infection” value ([1]; final analysis) was 4.7%. For the same compound, the “discontinuation rate due to contact dermatitis” value ([1]; final analysis) was 1.4%, the “discontinuation rate due to folliculitis” value ([1]; final analysis) was 1.2% and the “Study discontinuation due to AESI: Dermatitis contact” value ([1]; final analysis, Overall) was 11 (1.4) n (%). The “Study discontinuation due to AESI: Folliculitis” value ([1]; final analysis, Overall) was 9 (1.2) n (%), the “Study discontinuation due to AESI: Headache” value ([1]; final analysis, Overall) was 0 n (%) and the “Study discontinuation due to TEAEs” value ([1]; final analysis, Overall) was 41 (5.4) n (%). For the same compound, the “Treatment-emergent AESI: Dermatitis contact” value ([1]; final analysis, Overall) was 45 (5.9) n (%), the “Treatment-emergent AESI: Folliculitis” value ([1]; final analysis, Overall) was 183 (24.0) n (%) and the “Treatment-emergent AESI: Headache” value ([1]; final analysis, Overall) was 15 (2.0) n (%). For the same compound, the “Study discontinuation due to AESI: Dermatitis contact” value [1, 7] was 7 (1.4) n (%), the “Study discontinuation due to AESI: Folliculitis” value [1, 7] was 6 (1.2) n (%) and the “Study discontinuation due to AESI: Headache” value [1, 7] was 0 n (%). For the same compound, the “Study discontinuation due to TEAEs” value [1, 7] was 26 (5.1) n (%), the “Treatment-emergent AESI: Dermatitis contact” value [1, 7] was 24 (4.7) n (%) and the “Treatment-emergent AESI: Folliculitis” value [1, 7] was 124 (24.4) n (%). The “Treatment-emergent AESI: Headache” value [1, 7] was 10 (2.0) n (%), the “Study discontinuation due to AESI: Dermatitis contact” value [1, 8] was 4 (1.6) n (%) and the “Study discontinuation due to AESI: Folliculitis” value [1, 8] was 3 (1.2) n (%). The “Study discontinuation due to AESI: Headache” value [1, 8] was 0 n (%), the “Study discontinuation due to TEAEs” value [1, 8] was 15 (5.9) n (%) and the “Treatment-emergent AESI: Dermatitis contact” value [1, 8] was 21 (8.2) n (%). For the same compound, the “Treatment-emergent AESI: Folliculitis” value [1, 8] was 59 (23.1) n (%), the “Treatment-emergent AESI: Headache” value [1, 8] was 5 (2.0) n (%) and the “study discontinuation rate due to contact dermatitis” value ([1]; interim) was 1.4%. For the same compound, the “study discontinuation rate due to folliculitis” value ([1]; interim) was 1.2%, the “Premature discontinuation due to AEs” value ([1]; interim, Overall) was 5.8% and the “Premature discontinuation due to AEs” value ([1]; interim, Tapinarof (Pivotal) group) was 5.7%. For the same compound, the “Premature discontinuation due to AEs” value ([1]; interim, Vehicle (Pivotal) group) was 5.9%, the “KM estimated median time to target % BSA≤0.5%” value ([2]; 915 patients, baseline PGA≥2) was 199 days and the “mean time to target PASI≤3” value ([2]; 915 patients, baseline PGA≥2) was 58 days. The “median time to target % BSA≤1.0%” value ([2]; 915 patients, baseline PGA≥2) was 120 days, the “median time to target PASI≤1” value ([2]; 915 patients, baseline PGA≥2) was 185 days and the “median time to target PASI≤2” value ([2]; 915 patients, baseline PGA≥2) was 87 days. For the same compound, the “patients who achieved % BSA≤0.5%” value ([2]; 915 patients, baseline PGA≥2) was 49.7%, the “patients who achieved % BSA≤1.0%” value ([2]; 915 patients, baseline PGA≥2) was 61.3% and 61% and the “patients who achieved PASI≤1” value ([2]; 915 patients, baseline PGA≥2) was 50.3%. For the same compound, the “patients who achieved PASI≤2” value ([2]; 915 patients, baseline PGA≥2) was 66.9% and 67%, the “patients who achieved PASI≤3” value ([2]; 915 patients, baseline PGA≥2) was 75.0% and the “patients who achieved ≤1% BSA affected” value ([2]; within ˜3 months) was 40%. For the same compound, the “local tolerability (patient and investigator assessments)” value [3] was “well-tolerated”, the “decline in plasma concentrations” value [4] was 10 fold and the “PASI75 Responder” value ([5]; Week 16, LOCF, Overall, listed as tapinarof) was 21.3%. For the same compound, the “PASI75 Non-Responder” value [5, 9] was 413/491 (84.1) %, the “PASI75 Responder” value [5, 9] was 78/491 (15.9) % and the “Subjects with reduction of ≥90% from Baseline in PASI (PASI90)” value [5, 9] was 13.0%. For the same compound, the “mean (SD) PASI score” value [5, 9] was 2.74 (3.324), the “PASI75 Responder” value ([5]; Week 16, LOCF, Tapinarof (Pivotal) group, listed as tapinarof) was 15.9% and the “PASI75 Non-Responder” value [5, 10] was 170/250 (68.0) %. For the same compound, the “PASI75 Responder” value [5, 10] was 80/250 (32.0) %, the “Subjects with reduction of ≥90% from Baseline in PASI (PASI90)” value [5, 10] was 15.2% and the “mean (SD) PASI score” value [5, 10] was 3.47 (3.794). The “PASI75 Responder” value ([5]; Week 16, LOCF, Vehicle (Pivotal) group, listed as tapinarof) was 32.0%, the “Subjects with reduction of ≥90% from Baseline in PASI (PASI90)” value [5, 11] was 13.6% and the “mean (SD) PASI score” value [5, 11] was 2.38 (2.652). For the same compound, the “Subjects with reduction of ≥90% from Baseline in PASI (PASI90)” value [5, 12] was 15.9%, the “mean (SD) PASI score” value [5, 12] was 2.95 (3.020) and the “PASI75 Non-Responder” value [5, 13] was 478/619 (77.2) %. The “PASI75 Responder” value [5, 13] was 141/619 (22.8) %, the “PASI75 Responder” value ([5]; Week 16, Observed Cases, Overall, listed as tapinarof) was 22.8% and the “PASI75 Non-Responder” value [5, 14] was 342/412 (83.0) %. The “PASI75 Responder” value [5, 14] was 70/412 (17.0) %, the “PASI75 Responder” value ([5]; Week 16, Observed Cases, Tapinarof (Pivotal) group, listed as tapinarof) was 17.0% and the “PASI75 Non-Responder” value [5, 15] was 136/207 (65.7) %. For the same compound, the “PASI75 Responder” value [5, 15] was 71/207 (34.3) %, the “PASI75 Responder” value ([5]; Week 16, Observed Cases, Vehicle (Pivotal) group, listed as tapinarof) was 34.3% and the “PASI75 Non-Responder” value ([5]; Week 16 LOCF, Overall) was 583/741 (78.7) %. For the same compound, the “PASI75 Responder” value ([5]; Week 16 LOCF, Overall) was 158/741 (21.3) %, the “Subjects with reduction of ≥90% from Baseline in PASI (PASI90)” value ([5]; Week 16 LOCF, Overall) was 13.8% and the “mean (SD) PASI score” value ([5]; Week 16 LOCF, Overall) was 2.99 (3.504). The “Subjects with reduction of ≥90% from Baseline in PASI (PASI90)” value ([5]; Week 16 OC, Overall) was 14.4%, the “mean (SD) PASI score” value ([5]; Week 16 OC, Overall) was 2.57 (2.791) and the “PASI75 Responder” value ([5]; Week 40, LOCF, Overall, listed as tapinarof) was 25.3%. For the same compound, the “PASI75 Non-Responder” value [5, 16] was 409/492 (83.1) %, the “Subjects with reduction of ≥90% from Baseline in PASI (PASI90)” value [5, 16] was 11.2% and the “mean (SD) PASI score” value [5, 16] was 2.80 (3.443). For the same compound, the “PASI75 Responder” value ([5]; Week 40, LOCF, Tapinarof (Pivotal) group, listed as tapinarof) was 16.9%, the “PASI75 Non-Responder” value [5, 17] was 146/251 (58.2) % and the “PASI75 Responder” value [5, 17] was 105/251 (41.8) %. The “Subjects with reduction of ≥90% from Baseline in PASI (PASI90)” value [5, 17] was 20.7%, the “mean (SD) PASI score” value [5, 17] was 3.28 (3.937) and the “PASI75 Responder” value ([5]; Week 40, LOCF, Vehicle (Pivotal) group, listed as tapinarof) was 41.8%. For the same compound, the “Subjects with reduction of ≥90% from Baseline in PASI (PASI90)” value [5, 18] was 13.1%, the “mean (SD) PASI score” value [5, 18] was 2.38 (2.672) and the “Subjects with reduction of ≥90% from Baseline in PASI (PASI90)” value [5, 19] was 27.4%. For the same compound, the “mean (SD) PASI score” value [5, 19] was 2.31 (3.008), the “PASI75 Responder” value ([5]; Week 40, Observed Cases, Overall) was 30.9% and the “PASI75 Non-Responder” value [5, 20] was 186/236 (78.8) %. For the same compound, the “PASI75 Responder” value [5, 20] was 50/236 (21.2) %, the “PASI75 Responder” value ([5]; Week 40, Observed Cases, Tapinarof (Pivotal) group, listed as tapinarof) was 21.2% and the “PASI75 Non-Responder” value [5, 21] was 55/113 (48.7) %. The “PASI75 Responder” value [5, 21] was 58/113 (51.3) %, the “PASI75 Responder” value ([5]; Week 40, Observed Cases, Vehicle (Pivotal) group, listed as tapinarof) was 51.3% and the “PASI75 Non-Responder” value ([5]; Week 40 LOCF, Overall) was 555/743 (74.7) %. For the same compound, the “PASI75 Responder” value ([5]; Week 40 LOCF, Overall) was 188/743 (25.3) %, the “Subjects with reduction of ≥90% from Baseline in PASI (PASI90)” value ([5]; Week 40 LOCF, Overall) was 14.4% and the “mean (SD) PASI score” value ([5]; Week 40 LOCF, Overall) was 2.97 (3.622). The “Subjects with reduction of ≥90% from Baseline in PASI (PASI90)” value ([5]; Week 40 OC, Overall) was 17.8%, the “mean (SD) PASI score” value ([5]; Week 40 OC, Overall) was 2.36 (2.781) and the metabolic turnover [6] was “no metabolic turnover”.
